Measurements taken from paper PMC3522636, “4F Decreases IRF5 Expression and Activation in Hearts of Tight Skin Mice” (PLoS ONE, 2012).
“Also recorded” adds a separate entry of the source.

Experiments:
[1] = tested on: Human umbilical vein endothelial cells; experiment: Cellular uptake of B-4F in endothelial cells; assay type: cell-based; conditions: vs unlabeled 4F, confocal; for increase of fluorescence intensity in EC: 4 hours, fluorescein-streptavidin
Method: Human umbilical vein endothelial cells (EC; Lonza, Walkersville, MD) were incubated in EGM complete media containing 4F or B-4F (10 and 50 µg/ml) for 4 hours. The EC cultures were washed with PBS, fixed in PBS containing 1% paraformaldehyde, and permeabilized with PBS containing 0.5% Triton-X. The permeabilized sections were incubated with fluorescein-conjugated streptavidin (1 µg/ml) for 30 minutes followed by 3 PBS washes. The fixed and fluorescently labeled slides were mounted in aqueous mounting media and sections inspected and analyzed by confocal microscopy.

IRF5 = biological target: T1, IRF5 (Homo sapiens, UniProt Q13568); experiment: B-4F pulldown assay from EC cytosolic fractions spiked with recombinant IRF5; assay type: binding; conditions: immunoblot
T1 construct: purchased GenScript USA Inc
T1 sequence (Q13568 1-498): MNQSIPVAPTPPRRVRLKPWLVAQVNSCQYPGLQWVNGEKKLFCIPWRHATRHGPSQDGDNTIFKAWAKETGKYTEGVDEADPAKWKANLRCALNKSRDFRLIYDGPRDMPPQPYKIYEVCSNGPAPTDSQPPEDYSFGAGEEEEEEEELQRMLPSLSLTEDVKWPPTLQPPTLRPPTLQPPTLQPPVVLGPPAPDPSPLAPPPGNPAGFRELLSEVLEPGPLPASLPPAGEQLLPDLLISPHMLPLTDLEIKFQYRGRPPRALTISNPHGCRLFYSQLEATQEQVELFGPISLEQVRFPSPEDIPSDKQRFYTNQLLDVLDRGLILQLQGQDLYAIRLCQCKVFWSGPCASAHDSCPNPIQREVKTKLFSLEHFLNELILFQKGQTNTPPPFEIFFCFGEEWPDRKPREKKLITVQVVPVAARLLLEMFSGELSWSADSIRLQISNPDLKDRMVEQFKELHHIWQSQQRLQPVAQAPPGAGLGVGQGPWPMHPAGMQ
Method: B-4F Pulldown Assays: To determine whether 4F interacts with IRF5 in the presence of cystosol proteins, we performed 4F pulldown assays on EC cytosolic fractions spiked with recombinant IRF5. Briefly, cytosolic EC fractions were precleared with SA agarose beads (Cat#15942-050, Invitrogen) for 30 minutes at 4°C. IRF5 interactions were enhanced by adding recombinant IRF5 (2% wt/vol, Genscript USA Inc.) to the endothelial cytosolic fractions. 4F and B-4F were added to the cytosolic fractions and incubated for 3 hours at 4°C. SA agarose beads were added and the samples mixed end-over-end overnight at 4°C. The following day the SA agarose beads were isolated by centrifugation. The proteins associated with B-4F were released from the beads with Laemmli buffer and separated by SDS-PAGE (4–15%) as above. IRF5 levels in the pulldown samples were determined by autoradiography of immunoblots as above.

[2] = biological target: biotin-labeled 4F (biotin-labeled …-NH2); experiment: pull-down; B-4F added to precleared endothelial cell cytosolic fractions spiked with recombinant IRF5, 3 h at 4°C; SA agarose beads overnight at 4°C; immunoblot for IRF5

Row | fold IRF5 in the B-4F precipitate over control lane 1 [2] | Substance | increase of fluorescence intensity in EC ([1]; B-4F 10 µg/ml) | increase of fluorescence intensity in EC ([1]; B-4F 50 µg/ml, p≤0.05) | uptake into EC (in words) ([1]; B-4F 10 and 50 µg/ml, 4 hours (method), 3 hours (Figure 6)) | association with IRF5 in presence of EC cytosolic proteins (in words) (IRF5; 3 hours at 4°C, SA agarose beads overnight at 4°C) | IRF5 bound to the B-4F precipitate relative to control (IRF5; EC lysates with recombinant IRF5 (10 µg/mL), SA-agarose pulldown, lane 2 vs control lane 1)
1 |  | biotin-labeled DWFKAFYDKVAEKFKEAF-NH2 [B-4F, biotin-labeled 4F, synthesized with one more cycle with FMOC-Lys(biotinyl-ε-aminocaproyl)-OH] | approximately 30% | 3.6 fold | greater fluorescence in EC cultures incubated with 10 and 50 µg/ml of B-4F than in EC cultures incubated with equal concentrations of unlabeled 4F; also recorded: B-4F content is increased in ECs incubated with 10 and 50 µg/ml | associates with IRF5 even in the presence of EC cytosolic proteins | 2.5 fold
2 | 2.5 fold | recombinant IRF5 (from UniProt Q13568 1-498) (natural protein) |  |  |  |  | 
